# From publication PMC8369502, “High-Throughput Drug Screening System Based on Human Induced Pluripotent Stem Cell-Derived Atrial Myocytes ∼ A Novel Platform to Detect Cardiac Toxicity for Atrial Arrhythmias” (Frontiers in Pharmacology, 2021)
# Values joined by “and” are separate entries in the source; they are usually repeats but may differ in a detail not shown here. Identical values can stand only once. “Also recorded” adds a separate entry of the source. Like-named read-outs stand apart in the source and are kept apart here.
# How the values were obtained:
# [1] = tested on: AM (RA-treated hiPS-CMs, atrial-like); assay: High-throughput membrane potential recording (FluoVolt, FDSS/μCell) in AM; assay type: cell-based, human; settings: for cessation of beating (cases): count of cases; for rising slope of membrane potential (in words): concentration range as stated in the source
# Experimental: (§1) Using a high-throughput screening system (FDSS/μCell), we assessed the drug toxicity of several experimental drugs on hiPS-derived atrial myocytes as well as control hiPS-derived cardiomyocytes. Membrane potential was used as one of the parameters during the assessment.
# (§2) After purification, hiPS-derived cardiomyocytes were plated in 96-well plates for downstream drug response assessment using FluoVolt™ Membrane Potential Kit. […] The comparison of variance in the response of drug administration in CT and AM was represented by the percentage of changes based on their baseline values respectively.
# (§3) FluoVolt™ Membrane Potential Kit (ThermoFisher […], F10488, Massachusetts, United States) was used to measure membrane potentials. The basic procedure was performed in accordance with the manufacturer’s instructions. […] MP were recorded at excitation and emission stages at wavelengths of 470 and 540 nm, respectively. […] Stock solutions of the test compounds were prepared in 100% DMSO, and serially diluted 1/40 into compound plates for testing (0.5% DMSO was the maximum concentration in all wells). The compounds were automatically pipetted from the compound plate, and 12 μL was loaded in the wells already containing the cells with 48 μL of media. Recording data were analyzed using Waveform Analysis of Cardiomyocyte Software (Ver.1.2.1J, Hamamatsu Photonics K.K.). Data values for a well were averaged from waveforms that arose during 30 s. The beat rate (BR; beats per minute), waveform amplitude (AMP), and duration at 30, 50, and 80% of decay (PWD30, PWD 50, and PWD 80, respectively) were used as evaluation parameters. PWDs were corrected using the Fridericia formula. PWD30-80 was calculated as the difference between PWD80 and PWD30. Each parameter was calculated as percentage change (%) from the value before test compound addition.
# [2] = tested on: ventricular myocytes of guinea pigs; parameters: method as in Delaunois et al., 2015; settings: 75 μM; ref Delaunois et al., 2015; cited from earlier work
# [3] = tested on: CT (control hiPS-CMs without RA, ventricular-like); assay: High-throughput membrane potential recording (FluoVolt, FDSS/μCell) in CT; assay type: cell-based, human; settings: for Falling Slope / PWD30cF / PWD80cF / Rising Slope: % change from value before compound addition, 10 min after addition (Bay K 8644: 3 min)
# Experimental: as §1, §2, §3
# [4] = tested on: cardiac Na+ channel (Nav1.5); settings: cited from earlier work
# human atrial myocytes = tested on: human atrial myocytes; parameters: method as in Lagrutta et al., 2006; settings: ref Lagrutta et al., 2006; cited from earlier work
# Cav1.2 current = tested on: Cav1.2 current; parameters: method as in Kramer et al., (2013), Harmer et al., (2011); settings: ref Kramer et al., (2013), Harmer et al., (2011); cited from earlier work
# [5] = tested on: hiPS-derived cardiomyocytes; assay: Cardiac differentiation of hiPSCs with RA, immunostaining (cTnT, MLC-2a, MLC-2v); assay type: cell-based, human
# Experimental: Undifferentiated hiPSCs were maintained in AK02 medium for 2–3 days until 80% confluency was obtained. To obtain highly purified cardiomyocytes, metabolic selection was performed during post-differentiation, from day 15–26. Cardiomyocyte proportion was quantified by immunostaining with cardiac troponin-T (cTnT).
# To further evaluate the gene expression of cardiac subtypes in the control hiPS-CMs (CT) and the RA-treated hiPS-CMs (AM), the cells were co-stained with myosin light chain 2a (MLC-2a: atrial isoform) and myosin light chain 2v (MLC-2v: ventricular isoform) (Supplementary Figure 1). […] In AM (MLC-2a 83.4 ± 0.63%), most cTnT-positive cells were co-positive for MLC-2a, however, very few cTnT-positive cells were found co-positive for MLC-2v (MLC-2v 14.0 ± 2.82%) (Figures 1B, C).
# The hiPSCs were enzymatically dispersed and maintained until 80% confluence with StemFit® AK02N containing 10 µM Y-27632 (Wako, 036-24023). The next day, the culture medium was changed to StemFit® AK02N without Y-27632, which was maintained until the next passage. hiPSCs were seeded on a dish coated with Geltrex LDEV-Free Reduced Growth Factor (ThermoFisher […]) at 1% concentration in PBS. When the seeded cells reached 80% confluency (day-1), the culture medium was changed to StemFit® AK02N containing Matrigel® (Growth Factor Reduced, Corning, 354,230) at 1% concentration for 24 h. On day0, the culture medium was changed to Medium A (PSC Cardiomyocyte Differentiation Kit, ThermoFisher […]) containing Matrigel for 48 h. On day2, the culture medium was changed to Medium B (PSC Cardiomyocyte Differentiation Kit, ThermoFisher […]) for 48 h. On day4, the culture medium was changed to cardiomyocyte maintenance medium (PSC Cardiomyocyte Differentiation Kit, ThermoFisher […]) supplemented with or without 0.7 μM RA (Sigma Aldrich, R2625) for 72 h. On day 7, the culture medium was changed to cardiomyocyte maintenance medium, and change the medium every 2 days. The cells typically started spontaneous beating around 10 days of initiation of the differentiation protocol. Purification of cardiomyocytes was performed by using a non-glucose medium supplemented with 4 mM lactic acid for 4days/time, performed 2 times (from day 14 to day 18, and from day 21 to day 25), between the 2 times of purifying application, the medium was changed to cardiomyocyte maintenance medium for 72 h (from day 18 to day 21). After purification, the culture was continued in the cardiomyocyte maintenance medium until the functional analysis.
# hiPSC-derived cardiomyocytes were fixed with 4% PFA and permeabilized with 0.1% Triton-X in PBS (-) for 15 min at 4°C. […] Fluorescence images were obtained using Operetta high content imaging system (PerkinElmer, Japan) and analyzed using Harmony analysis software (PerkinElmer, Japan).
# [6] = tested on: ventricular function and porcine ventricular myocytes; parameters: method as in Knobloch et al., 2002; settings: ref Knobloch et al., 2002; cited from earlier work
# atrial refractory period = tested on: atrial refractory period; parameters: method as in Knobloch et al., 2002; settings: ref Knobloch et al., 2002; cited from earlier work
# [7] = % change from value before compound addition, 10 min after addition (Bay K 8644: 3 min)
# [8] = concentration range as stated in the source
Structure (SMILES),concentration at which cessation of beating was elicited [3],incidence of arrhythmia-like waveforms: arrest ([1]; 30 μM) [%],incidence of arrhythmia-like waveforms: arrest ([1]; 100 μM) [%],"Rising Slope [1, 7]",rising slope of membrane potential (in words) [1],amplitude of membrane potential (in words) [3],membrane potential duration (in words) [3],incidence of arrhythmia-like waveforms: arrest ([3]; 30 μM) [%],incidence of arrhythmia-like waveforms: arrest ([3]; 100 μM) [%],Falling Slope [3],PWD30cF [3],PWD80cF [3],Rising Slope [3],"falling slope of membrane potential (in words) [3, 8]","rising slope of membrane potential (in words) [3, 8]",PWD30cF (in words) [1],PWD50cF (in words) [1],"PWD30cF [1, 7]",incidence of arrhythmia-like waveforms: arrest ([1]; 10 μM) [%],other results
CC(C)[C@@H]1CC[C@@H](C)C[C@@H]1P(=O)(c1ccccc1)c1ccccc1 [DPO-1],–,–,–,–,–,–,–,–,–,–,–,–,–,–,–,dose-dependent increases; also recorded: prolongation,dose-dependent increases; also recorded: prolongation,↑,–,action potentials in human atrial myocytes (human atrial myocytes): prolongation of action potentials
"CC1=C(/C=C/C(C)=C/C=C/C(C)=C/C(=O)O)C(C)(C)CCC1 [RA, retinoic acid]",–,–,–,–,–,–,–,–,–,–,–,–,–,–,–,–,–,–,–,"MLC-2a positive cells ([5]; AM (RA-treated hiPS-CMs)): 83.4 ± 0.63%; MLC-2v positive cells ([5]; AM (RA-treated hiPS-CMs)): 14.0 ± 2.82%; proportion of cTnT-positive cells ([5]; AM (RA-treated hiPS-CMs), 0.7 μM RA day 4-7, n = 3): 96.79 ± 1.81% and 96.8 ± 1.81%; cardiomyocyte differentiation efficiency (in words) ([5]; with vs without RA): did not influence cardiomyocyte differentiation efficiency"
O=C(NCc1ccccc1-c1ccccc1C(=O)NCCc1ccccn1)OCc1ccccc1 [S9947],–,–,–,–,–,decrease,–,–,–,↑,↓,↓,↓,–,–,prolongation,prolongation,↑,100,"membrane potential duration (in words) [1]: dose-dependent increase; cessation of beating / arrest (cases) ([1]; 10 μM, count of wells): All; PWD80cF [1, 7]: ↑; incidence of arrhythmia-like waveforms: arrest ([3]; 10 μM): 50%; cessation of beating / arrest (cases) ([3]; 10 μM, count of cases): half; ventricular function and porcine ventricular myocytes [6]: did not affect; atrial refractory period (atrial refractory period): prolonged"

# Continued, in another order:
concentration at which cessation of beating was elicited [3],Structure (SMILES),incidence of arrhythmia-like waveforms: arrest ([1]; 30 μM) [%],incidence of arrhythmia-like waveforms: arrest ([1]; 100 μM) [%],"Rising Slope [1, 7]",rising slope of membrane potential (in words) [1],amplitude of membrane potential (in words) [3],membrane potential duration (in words) [3],incidence of arrhythmia-like waveforms: arrest ([3]; 30 μM) [%],incidence of arrhythmia-like waveforms: arrest ([3]; 100 μM) [%],Falling Slope [3],PWD30cF [3],PWD80cF [3],Rising Slope [3],"falling slope of membrane potential (in words) [3, 8]","rising slope of membrane potential (in words) [3, 8]",PWD30cF (in words) [1],PWD50cF (in words) [1],"PWD30cF [1, 7]",incidence of arrhythmia-like waveforms: arrest ([1]; 10 μM) [%],other results
above 30 μM,NC(=O)N1c2ccccc2C=Cc2ccccc21 [Carbamazepine],50,83,↓,decrease,decrease,shortened,8,92,↑,↓,↓,↓,increase,decrease,–,–,–,–,"other parameters of membrane potential (in words) [1]: no obvious change was observed; cessation of beating (cases) ([1]; 30 μM): half the cases; cessation of beating (cases) ([1]; 100 μM): 5 of 6; APD50 [2]: shortening; APD90 [2]: shortening; Vmax [2]: decrease; concentration at which irregular beating or EAD appeared [3]: above 30 μM; incidence of arrhythmia-like waveforms: irregular beat ([3]; 30 μM): 25%; incidence of arrhythmia-like waveforms: irregular beat ([3]; 100 μM): 8%; cessation of beating (cases) ([3]; 100 μM, count of cases): 11 of 12; beating rate (in words) [3, 8]: decrease; IC50 ([4]; ref Harmer et al., 2011, read-out: IC50 cardiac Na+ channel (Nav1.5)): 152 µM"
higher than 30 μM,O=C1NC(=O)C(c2ccccc2)(c2ccccc2)N1 [Phenytoin],67,100,↓,dose-dependent decrease,–,slight shortening,83,100,↑,–,–,↓,increase,dose-dependent decrease,–,–,–,50,"IC50 (Cav1.2 current): 21.9 µM; IC50 ([4]; ref Kramer et al., (2013), Harmer et al., (2011), read-out: IC50 cardiac Nav1.5 current): 72.4 µM and 121 µM"
